# Source: patent US5270321A, “Use of dicentrine and its derivatives for the treatment of arrhythmia” (priority 1992, dated 1993)
# Where two headings read alike, the source gives them in different places.
# Columns and labels:
# rat thoracic aorta = test: Norepinephrine-induced contraction of thoracic aorta; assay type: cell-based
# Source text: They inhibited the aggregation of washed rabbit platelets induced by ADP, collagen, arachidonic acid and platelet-activating factor (PAF). […] Furthermore, the action potential of rat ventricular cells was prolonged by these fractions. After rechromatograph on a silica gel column with n-hexane-ethylacetate (2:1), four potent compounds, dicentrine, N-methylnandigerine, N-methylovigenine and dicentrinone were obtained.
# The dried, ground root material (500 g) was extracted with 95% ethanol, and the extract was concentrated in vacua and fractionated into ethanol- and ethylacetate-soluble fractions. The ethylacetate-soluble fraction was then applied to a column of silica gel and eight fractions were obtained.
# Concentration: arachidonic acid (100 μM), collagen (10 μg/ml),
# norepinephrine (NE, 3 μM), each fraction (100 μg/ml).
# α1 -adrenoceptor = biological target: T1, α1 -adrenoceptor (Rattus norvegicus, UniProt P23944); test: α1-adrenoceptor antagonism, concentration-response (Schild) analysis of norepinephrine- and phenylephrine-induced contraction of rat thoracic aortae; assay type: cell-based; settings: for Kb: means ± S.E.M.
# T1 construct: contraction of rat thoracic aortae; from tissue; host or cells: rat thoracic aorta
# T1 sequence (P23944 1-561): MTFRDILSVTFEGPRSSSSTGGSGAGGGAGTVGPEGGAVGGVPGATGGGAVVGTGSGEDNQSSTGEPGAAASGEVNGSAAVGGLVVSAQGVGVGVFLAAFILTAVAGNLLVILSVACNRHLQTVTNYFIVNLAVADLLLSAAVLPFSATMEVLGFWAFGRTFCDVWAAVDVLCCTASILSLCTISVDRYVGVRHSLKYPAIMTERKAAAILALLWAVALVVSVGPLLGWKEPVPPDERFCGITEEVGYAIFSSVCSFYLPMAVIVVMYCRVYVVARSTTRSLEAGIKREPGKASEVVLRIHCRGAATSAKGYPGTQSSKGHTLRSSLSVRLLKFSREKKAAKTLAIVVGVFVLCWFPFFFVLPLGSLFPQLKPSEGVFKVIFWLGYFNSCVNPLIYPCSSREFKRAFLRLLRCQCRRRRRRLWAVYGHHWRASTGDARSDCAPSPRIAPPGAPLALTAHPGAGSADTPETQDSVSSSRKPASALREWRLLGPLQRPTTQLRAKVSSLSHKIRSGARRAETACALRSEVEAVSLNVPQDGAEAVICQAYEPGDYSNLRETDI
# aorta = test: Aortic contraction induced by U-46619, angiotensin II, high potassium or carbachol; assay type: cell-based, rat
# guinea-pig trachea = test: Contraction and relaxation of guinea-pig trachea; assay type: cell-based
# rat ventricular cells = test: Action potential in rat ventricular cells; assay type: cell-based; settings: for AP amplitude / APD50 (action potential duration measured at 50% repolarization from the peak amplitude) / Tp (time to peak measured from the start of depolarization to the peak of the action potential): 3 μM, Ca^++ -Tyrode, 3 to 5 min exposure, means ± S.E.M.
# Source text: (§1) In rat ventricular cells, the effects of dicentrine on action potential and membrane current were studied. […] However, calcium current was less affected.
# The effects of dicentrine and quinidine on action potential were compared and studied in rat ventricular cells. […] In addition to the prolongation of APD50, a depression of initial upstroke amplitude from 138.3±2.6 mV to 125.5±4.5 mV and prolongation of the time to peak amplitude from 5.0±0.5 msec to 10.0±1.9 msec were observed.
# [1] = system: transient outward and steady state outward current; test: Voltage clamp: transient outward and steady state outward current in rat ventricular cells; assay type: cell-based
# Source text: as §1
# calcium current = test: Voltage clamp: calcium current in rat ventricular cells; assay type: cell-based
# Source text: as §1
# [2] = system: fast sodium inward current; test: Fast sodium inward current in rat ventricular cells; assay type: cell-based
# Source text: as §1
# [3] = system: pentobarbital-anesthetized rats; test: Systemic hemodynamic parameters of anesthetized rats; assay type: in vivo, rat
# [4] = system: conscious spontaneously hypertensive (SH) rats; test: Mean arterial pressure in conscious spontaneously hypertensive (SH) rats; assay type: in vivo, rat
# normotensive (NT) rats = test: Mean arterial pressure in conscious normotensive (NT) rats; assay type: in vivo, rat
# isolated thoracic aorta = test: Contractile force of isolated thoracic aorta of rats fed with high cholesterol and high fat diet; assay type: in vivo, rat
# serum triglyceride = test: Serum triglyceride level in rats fed with cholesterol-triglyceride-rich diet; assay type: in vivo, rat
# [5] = concentration-response curve analysis
# [6] = pentobarbital-anesthetized rats
smiles,measurement,setting,value
"COc1cc2c(cc1OC)-c1c3c(cc4c1[C@H](C2)N(C)CC4)OCO3 [Dicentrine, dicentrine]",vasorelaxant potency (in words),rat thoracic aorta,the most potent vasorelaxant in rat thoracic aorta
same,r,α1 -adrenoceptor; agonist norepinephrine,0.99
same,Kb,"α1 -adrenoceptor; agonist norepinephrine, read-out: pA2 (converted)",6.46 nM
same,r,α1 -adrenoceptor; agonist phenylephrine,0.99
same,potency compared with phentolamine or yohimbine (in words),α1 -adrenoceptor; [5],much more potent than phentolamine or yohimbine
same,potency compared with prazosin (in words),α1 -adrenoceptor; [5],less potent than prazosin
same,antagonism in denuded aorta (in words),α1 -adrenoceptor; denuded aorta,These effects still persisted in denuded aorta
same,Kb,"α1 -adrenoceptor; pA2, agonist phenylephrine",0.977 nM
same,antagonism of norepinephrine- or phenylephrine-induced vasoconstriction (in words),α1 -adrenoceptor; rat aorta,competitive antagonism
same,"aortic contraction induced by U-46619, angiotensin II, high potassium or carbachol (in words)",aorta,did not affect
same,contraction of guinea-pig trachea caused by histamine or carbachol (in words),guinea-pig trachea; histamine or carbachol,slightly inhibited
same,B-adrenoceptor relaxation to isoprenaline in trachea (in words),guinea-pig trachea; isoprenaline,not affected
same,AP amplitude,rat ventricular cells,125.5 ± 4.5 mV
same,APD50 (action potential duration measured at 50% repolarization from the peak amplitude),rat ventricular cells,201.9 ± 28.7 ms
same,Tp (time to peak measured from the start of depolarization to the peak of the action potential),rat ventricular cells,10.0 ± 1.9 ms
same,AP amplitude,rat ventricular cells; listed as dicentrine,125.5±4.5 mV
same,APD50 (action potential duration measured at 50% repolarization from the peak amplitude),rat ventricular cells; listed as dicentrine,201.9 ± 28.7 ms
same,Tp (time to peak measured from the start of depolarization to the peak of the action potential),rat ventricular cells; listed as dicentrine,10.0 ± 1.9 ms
same,action potential duration (in words),rat ventricular cells; stimulation frequency 0.1 Hz,prolonged the action potential
same,initial upstroke amplitude (in words),rat ventricular cells; stimulation frequency 0.1 Hz,reduced the initial upstroke amplitude
same,time to peak (in words),rat ventricular cells; stimulation frequency 0.1 Hz,increased the time to peak
same,transient outward and steady state outward current (in words),[1],significant inhibition of both transient outward and steady state outward current
same,calcium current (in words),calcium current,less affected
same,fast sodium inward current (in words),[2],inhibition of fast sodium inward current
same,hypotensive activity after α1 -adrenoceptor blockade (in words),[3]; after α1 -adrenoceptor blockade,completely abolished
same,mean arterial blood pressure (in words),"[3]; anesthetized rats, i.v. bolus 0.1-1.0 mg/kg",dose-related reduction in mean arterial blood pressure
same,persistence of reduction in mean arterial blood pressure,"[3]; anesthetized rats, i.v. bolus 0.1-1.0 mg/kg, throughout observation period",≥ 2 h
same,cardiac output (in words),[3]; [6],little or no change in cardiac output (CO)
same,mean arterial pressure (in words),[3]; [6],a decrease in mean arterial pressure (MAP)
same,total peripheral resistance (in words),[3]; [6],a reduction in total peripheral resistance by increasing blood flow
same,"heart rate, stroke volume (in words)","[3]; pentobarbital-anesthetized rats, in comparison with prazosin","no change in heart rate (HR), or stroke volume (SV)"
same,mean arterial pressure (in words),[4]; compared with NT rats,dose-related decreases in mean arterial pressure which were of greater magnitude in SH than in NT rats
same,persistence of hypotensive effect,[4]; oral administration,over 15 hr
same,mean arterial pressure (in words),normotensive (NT) rats,dose-related decreases in mean arterial pressure
same,contractile force of cholesterol-triglyceride-treated rat aorta (in words),isolated thoracic aorta; cholesterol-triglyceride-rich diet,restored the contractile force of cholesterol-triglyceride-treated rat aorta back to normal values
same,maximal contractile force of isolated thoracic aorta (in words),"isolated thoracic aorta; high cholesterol and high fat diet three weeks, dicentrine 10 mg/kg oral twice a day in the last week, prazosin 5 mg/kg",restored to normal range
same,serum triglyceride level (in words),serum triglyceride,decreased the serum triglyceride level
"Cc1ccc(N(CC2=NCCN2)c2cccc(O)c2)cc1 [Phentolamine, phentolamine, reference compound]",slope,"α1 -adrenoceptor; Schild slope, agonist phenylephrine, 95% confidence limits in parentheses",0.72 (0.70-1.20)
same,r,α1 -adrenoceptor; agonist phenylephrine,0.99
"COc1cc2nc(N3CCN(C(=O)c4ccco4)CC3)nc(N)c2cc1OC [Prazosin, prazosin, reference compound]",r,α1 -adrenoceptor; agonist phenylephrine,0.99
same,cardiac output (in words),[3]; [6],little or no change in cardiac output (CO)
same,mean arterial pressure (in words),[3]; [6],a decrease in mean arterial pressure (MAP)
same,total peripheral resistance (in words),[3]; [6],a reduction in total peripheral resistance by increasing blood flow
"C=C[C@H]1C[N@@]2CC[C@H]1C[C@@H]2[C@@H](O)c1ccnc2ccc(OC)cc12 [Quinidine, quinidine, reference compound]",AP amplitude,rat ventricular cells,121.2 ± 2.3 mV
same,APD50 (action potential duration measured at 50% repolarization from the peak amplitude),rat ventricular cells,276.0 ± 18.6 ms
same,Tp (time to peak measured from the start of depolarization to the peak of the action potential),rat ventricular cells,10.8 ± 2.4 ms
"COC(=O)[C@@H]1[C@H]2C[C@H]3c4[nH]c5ccccc5c4CCN3C[C@@H]2CC[C@@H]1O [Yohimbine, yohimbine, reference compound]",r,α1 -adrenoceptor; agonist phenylephrine,0.99
same,Kb,"α1 -adrenoceptor; pA2, agonist phenylephrine",631 nM
